Patent US20060121069A1, “Compositions and methods for treating hair loss using oximyl and hydroxylamino prostaglandins” (Duke University, priority 2000, published 2006)

Each compound was assayed against T1, hFP (Homo sapiens, UniProt P43088) (assay: Radioligand Binding Assay (receptor competition binding, hFP membranes)). Settings: competition against 5 nM (3H) PGF2 on hFP membrane from transfected COS-7 cells; method per Reference Example 1; read-out: IC50 of the Prostaglandin.
T1 construct: expressed in transfected cells; host or cells: COS-7 cells, transient transfection with LipofectAMINE; membranes prepared
T1 sequence (P43088 whole entry): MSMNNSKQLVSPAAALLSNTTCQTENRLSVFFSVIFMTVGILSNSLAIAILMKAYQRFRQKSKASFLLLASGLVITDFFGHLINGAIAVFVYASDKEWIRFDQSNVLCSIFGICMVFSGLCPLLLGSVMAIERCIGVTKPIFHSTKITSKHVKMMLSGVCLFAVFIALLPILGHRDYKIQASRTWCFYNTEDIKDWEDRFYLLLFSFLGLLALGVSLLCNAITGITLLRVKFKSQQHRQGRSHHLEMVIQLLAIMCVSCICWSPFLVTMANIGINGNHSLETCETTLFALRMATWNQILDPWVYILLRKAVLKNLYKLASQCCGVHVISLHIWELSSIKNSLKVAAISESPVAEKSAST
Description: IC50 of a prostaglandin can be determined relative to PGF2α using the Radioligand Binding Assay. As a control, the IC50 for PGF2α itself should be no lower than 1.0 nM and no higher than 5.0 nM.
In this assay, COS-7 cells are transiently transfected with the hFP recombinant plasmid using LipofectAMINE Reagent. Forty-eight hours later, the tranfected cells are washed with Hank's Balanced Salt Solution (HBSS, without CaCl2, MgCl2, MgSO4, or phenol red). The cells are detached with versene, and HBSS is added. The mixture is centrifuged at 200g for 10 minutes, at 4° C. to pellet the cells. The pellet is resuspended in Phosphate-Buffered Saline-EDTA buffer (PBS; 1 mM EDTA; pH 7.4; 4° C.). The cells are disrupted by nitrogen cavitation (Parr model 4639), at 800 psi, for 15 minutes at 4° C. The mixture is centrifuged at 1000 g for 10 minutes at 4° C. The supernatant is centrifuged at 100,000 g for 60 minutes at 4° C. The pellet is resuspended to 1 mg protein/mL TME buffer (50 mM Tris; 10 mM MgCl2; 1 mM EDTA; pH 6.0; 4° C.) based on protein levels measured using the Pierce BCA Protein Assay kit. The homogenate is mixed for 10 seconds using a Kinematica POLYTRON® (available from KINEMATICA AG, Luzernerstrasse147A CH-6014 Littau, Switzerland). The membrane preparations are then stored at −80° C., until thawed for assay use.
The receptor competition binding assays are developed in a 96 well format. Each well contains […] of hFP membrane, 5 nM (3H) PGF2, and the various competing compounds in a total volume of […]. The plates are incubated at 23° C. for 1 hour. The incubation is terminated by rapid filtration using the Packard Filtermate 196 harvester through Packard UNIFILTER® GF/B filters (available from Packard Instrument Co., Inc. of Downers Grove Ill.) pre-wetted with TME buffer. The filter is washed four times with TME buffer. […] The plates are read on a Packard TOPCOUNT® Microplate Scintillation Counter (also available from Packard Instrument Co., Inc.)

IC50 | SMILES
162 nM | O=C(O)CCCCCC[C@H]1[C@@H](O)C/C(=N/O)[C@@H]1CC[C@@H](O)CSc1ccccc1
15 nM | CCCCC[C@H](O)/C=C/[C@H]1/C(=N\O)C[C@H](O)[C@@H]1C/C=C\CCCC(=O)O [Example 1-1]
150 nM | CCCCC[C@H](O)/C=C/[C@H]1C(NO)C[C@H](O)[C@@H]1C/C=C\CCCC(=O)O (stereo partly drawn) [Example 1-2]
